Each structure is given as a SMILES string. Several values for one entry are separate records, joined by “and”; a condition that tells them apart may be missing. Equal entries are not always repeated.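 The compound was tested at five concentrations on cells cultured in 96-well plates, with a 48-hour exposure period. The concentration for 50% growth inhibition is given as GI50. The concentration for full growth arrest is given as TGI.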 Some results are limits rather than exact numbers.

This experiment has as its system MDA-MB-468 breast. As to the kind of experiment: NCI-60 cell line screen, 48 h.
As for `CC(=O)Oc1cc2cnc3c4cc(OC(C)=O)c(OC(C)=O)cc4ccc3c2cc1OC(C)=O`, the GI50 was 1200 nM and the TGI came to 4.44 µM.
In the same order, the values of `COc1cc(/C=C2\SC(N3CCCCC3)=NC2=O)ccc1OCCCCCCOc1ccc(/C=C2\SC(N3CCCCC3)=NC2=O)cc1OC` are 10300 nM and 37.2 µM.
In the same order, the values of `CS(=O)(=O)Nc1cc(-c2ccc3ncnc(Nc4cccc(Cl)c4)c3c2)cnc1Cl` are 145 nM and 0.59 µM.
In the case of `COc1ccc(C(O)c2cc3c(N)c(C(=O)Nc4cccc(Br)c4C)sc3nc2C)cc1` (configuration not stated), the GI50 is 125 nM and the TGI was determined as 19.1 µM.
Consider `COc1cc2ncnc(Oc3cccc(NC(=O)Nc4cc(C(C)(C)C(F)(F)F)on4)c3)c2cc1OC`, for which the GI50 is 1040 nM and 1260 nM; the TGI was 6.01 µM and 6.4 µM.
For `COc1cc2cc(Oc3cccc(NC(=O)Nc4cc(C(F)(F)F)cc(C(F)(F)F)c4)c3)c(C)nc2cc1OC`, the GI50 was 1080 nM and the TGI was 3.96 µM.
In the same order, the values of `CCO/C=N/C1=C(C#N)C(c2ccc(OC)cc2)c2sc3c(CC)cccc3c2O1` (configuration not stated) are 2500 nM and 10.3 µM.
In the case of `Cc1cc(NN=C(c2ccc(O)cc2)c2ccc(O)cc2)c([N+](=O)[O-])cc1[N+](=O)[O-]`, the GI50 was 4910 nM and the TGI is 36.7 µM.
Consider `COc1cccc(-c2nc3sccn3c2-c2ccnc(NCCCNS(=O)(=O)c3ccccc3)c2)c1`, for which the GI50 is 2470 nM and the TGI was determined as 7.83 µM.
The like results for `C=CC(=O)Nc1cc2c(Nc3ccc(F)c(Cl)c3)ncnc2cc1C#CC(C)(C)N1CCN(C)CC1` were, in that order, 7.95 nM and 0.401 µM.
With `COc1ccc(/C=C/C(=O)c2cc3c(N)c(C(=O)Nc4ccc(OC)cc4)sc3nc2C)cc1`, the GI50 was 135 nM and the TGI was above 50 µM.
As for `O=c1[nH]cnc2n[nH]nc12`, the GI50 is 1310 nM and the TGI is 12.7 µM.
For `CC(C)OP(=O)(O)c1ncc(-c2ccc(C(F)(F)F)cc2)c(NC2CCCCCC2)n1`, the GI50 was 11200 nM and the TGI is above 100 µM.
The like results for `CC(O)[C@H](NC(=O)N[C@@H](CC(N)=O)c1nc(N2CCNCC2)no1)C(=O)O` (some centres not stated) were, in that order, above 100000 nM and above 100 µM.
The like results for `CC1(C)N=C(N)N=C(N)N1c1cccc(CCc2ccccc2)c1` were, in that order, 74.5 nM and 2.51 µM.
As for `O=C1Nc2ccc3c(c2/C1=C\c1cc2c(cc1Br)OCO2)OCO3`, the GI50 was 295 nM and the TGI turned out to be 0.978 µM.
The like results for `CCc1ccc2c(c1)N(CCO)C1=C(C(=O)OC1)C2c1cc(OC)c(OC)c(OC)c1` (configuration not stated) were, in that order, 89.7 nM and 0.347 µM.
In the case of `C[C@@H]1CCc2ncc(F)cc2[C@H]2CCCN2c2ccn3ncc(c3n2)C(=O)N1`, the GI50 was 76400 nM and the TGI is above 100 µM.
In the same order, the values of `O=[N+]([O-])/C=C/c1ccc(Cl)cc1[N+](=O)[O-]` are 1920 nM and 3.69 µM.
In the same order, the values of `COc1ccc2c(c1OC)O/C(=C\c1ncc([N+](=O)[O-])n1C)C2=O` are 2510 nM and 8.23 µM.
For `CCn1c(-c2nonc2N)nc2cnc(Oc3cccc(NC(=O)c4ccc(N(C)C)cc4)c3)cc21`, the GI50 is 10700 nM and the TGI is above 25 µM.
Consider `CN(C)c1ccc(-c2ccc(-c3ccc(C(=N)N)cn3)o2)cc1`, for which the GI50 is 1390 nM and the TGI came out at 3.05 µM.
The like results for `COc1ccc(C2=Nn3c(nnc3-n3nc(C)cc3C)SC2)cc1` were, in that order, 140 nM and above 100 µM.
As to `CC[C@H]1OC(=O)[C@H](C)[C@@H](O[C@H]2C[C@@](C)(OC)[C@@H](O)[C@H](C)O2)[C@H](C)[C@@H](O[C@@H]2O[C@H](C)C[C@H](N(C)C)[C@H]2O)[C@](C)(OC)C/C(C)=C2/O[C@@]1(C)C=C2C`, the GI50 is 1820 nM and the TGI worked out at 3.5 µM.
Turning to `CCCCCCCCCCCCCCCC[n+]1ccccc1`, the GI50 was 104 nM and 194 nM; the TGI was 0.428 µM and 0.793 µM.
In the case of `CCOC(=O)c1c(CN2CCN(C)CC2)nc2ccc(Cl)cc2c1-c1ccccc1`, the GI50 is 1800 nM and the TGI turned out to be 4.43 µM.
Take `CCOC(=O)/C(=C\c1ccc2ccccc2c1)P(=O)(OCC)OCC`: the GI50 was 1900 nM and the TGI was determined as 3.83 µM.
Regarding `COc1ccc(-c2cc(/C=C/C(=O)c3ccc(N)cc3)[nH]n2)cc1`, the GI50 is 430 nM and the TGI was 2.09 µM.
Consider `CCOC(=O)c1c(NC(=O)c2ccc(Cl)cc2)sc2c(CN(C)C)c(O)ccc12`, for which the GI50 is 3480 nM and the TGI was 18.6 µM.
For the compound `COc1ccc2c(c1)C(=O)c1c-2c(OCCN(C)C)nc2cc(OC)c(OC)cc12`, the GI50 was 3950 nM and the TGI is 19 µM.
The like results for `C#C[C@]1(O)CC[C@H]2[C@@H]3CC=C4c5nc(N)sc5CC[C@]4(C)[C@H]3CC[C@@]21C` were, in that order, 2520 nM and 7.03 µM.
In the same order, the values of `CN1CC[C@H](c2c(O)cc(O)c3c(=O)cc(-c4ccccc4Cl)oc23)[C@H](O)C1` are 71.8 nM and 0.269 µM.
Consider `COc1cc(NC2CCCCC2O)c2nc(-c3ccc(Cl)cc3)ccc2c1` (configuration not stated), for which the GI50 is 7480 nM and the TGI was 98.4 µM.
In the same order, the values of `NC(=O)/C(=C/n1cnc(-c2cc(C(F)(F)F)cc(C(F)(F)F)c2)n1)c1cncnc1` are 373 nM and 3.01 µM.
With `O=CN1N=C(c2cccc(Nc3ccnc4cc(Cl)ccc34)c2)CC1c1ccc(Cl)cc1` (configuration not stated), the GI50 was 422 nM and the TGI was 3.17 µM.
The like results for `COc1cc(-c2nn(-c3cccc(NC(=O)CCN4CCN(c5ccccc5)CC4)c3)cc2-c2ccncc2)ccc1Cl` were, in that order, 3030 nM and 51.4 µM.
`COc1cc(-c2nn(-c3cccc(NC(=O)CCNc4ccc(N5CCOCC5)cc4)c3)cc2-c2ccncc2)ccc1Cl`: the GI50 was 2010 nM and the TGI amounted to 22.9 µM.
In the case of `CCOc1ccc2cc(-c3nn(CC4CCNCC4)c4ncnc(N)c34)ccc2c1`, the GI50 is 14300 nM and the TGI came out at 30.2 µM.
In the same order, the values of `Cc1ccc(C2CC(c3ccc(Nc4ccnc5cc(Cl)ccc45)cc3)=NN2C=O)cc1` (configuration not stated) are 1510 nM and above 100 µM.
The like results for `CCOC(=O)[C@@H]1CSC(CC)=C(C(=O)O)N1` were, in that order, above 100000 nM and above 100 µM.
The like results for `COc1cc2c3cc1Oc1c(OC)c(OC)cc4c1C(Cc1ccc(O)c(c1)Oc1ccc(cc1)CC3N(C)CC2)N(C)CC4` (configuration not stated) were, in that order, 8210 nM and 23.1 µM.

For the origin of these results see PubChem BioAssay (NCI).
